Assay results published in patent publication US20210171576A1, “METHODS FOR TREATING CANCER WITH ACYLDEPSIPEPTIDE ANALOGS” (priority 2018, published 2021).
Where a SMILES comes first, the peptide text is derived from it. Bridges are numbered along the chain shown (N, C = ends). [ ]: non-standard residue; d: D form. The star is where a group is joined. Phe(3,5-F2) = N[C@@H](Cc1cc(F)cc(F)c1)C(=O)O; Heptenoyl(2E) = CCCC/C=C/C(=O)*; aThr = C[C@H](O)[C@H](N)C(=O)O; Pip = O=C(O)[C@@H]1CCCCN1

Legend:
HsCIpP = target: T1, HsCIpP (Homo sapiens, UniProt Q16740, P57S); assay: Protease activity assay (casein-FITC degradation) with ADEP, independent of HsCIpX; type: biochemical; settings: 3 μM HsCIpP, 10 μM casein-FITC, no HsCIpX; read-out: K0.5 (microscopic apparent dissociation constant), protease activity
T1 construct: 2x(His6-thrombin)-SUMO (N, cleaved yes); made in house; host or cells: E. coli (SG1146 stated for HsClpP; 'a similar protocol' for HsClpX)
Method: The protease activity of purified HsCIpP was assessed by monitoring the degradation of bovine milk casein labelled with fluorescein isothiocyanate (casein-FITC) (Sigma-Aldrich) in the presence of ADEP and/or purified HsCIpX. All reactions were carried out in 25 mM HEPES, pH 7.5, 35 mM KCl, 25 mM MgCl2, 0.03% Tween-20, 10% glycerol, and 1 mM DTT, supplemented with 16 mM creatine phosphate and 300 μM ATP. HsCIpP was used at 3 μM (final monomeric concentration) and casein-FITC was added at the final concentration of 10 μM. 13 U of creatine phosphokinase (Sigma-Aldrich) was also added for ATP regeneration. DMSO was present at 1% (v:v) final concentration in the experiments that involve the use of ADEP analogs. All reactions were carried out with 150 μL of the reaction mix per well in a 96-well black flat-bottom plate at 37° C. Degradation of casein-FITC and subsequent release of the free FITC moiety was monitored by fluorescence with λex=494 nm and λem=518 nm using the EnSpire 2300 Multilabel Reader set to perform a reading every 40 s with 20 flashes. A total of 100 readings were collected in each experiment. […]
The effect of ADEP in activating HsCIpP was assessed via the degradation of casein-FITC by HsCIpP independent of HsCIpX. […] Initial rates data were collected and analyzed using the Hill equation above to determine Vmax, h and K0.5 for each ADEP analog. […]

[1] = target: T2, human mitochondrial CIpP (HsCIpP) (Homo sapiens, UniProt Q16740); assay: Screen of ADEP analogs against HsCIpP: relative degradation (RD) index, casein-FITC degradation relative to E. coli CIpAP; type: biochemical; parameters: key: casein-FITC degradation by HsClpP relative to EcClpAP
T2 construct: made in house; host or cells: E. coli SG1146 (BL21(DE3) ΔclpP::cat)
Excerpt: Structural analogs of acyldepsipeptide (ADEP) (Goodreid et al., 2016) that were previously developed as potential antibiotics against bacterial CIpP were screened and assessed for their ability to activate and dysregulate the protease activity of HsCIpP, by measuring their relative degradation (RD) index. Note that ADEP-28 was also previously reported by Carney et al. (2014). Details of the experimental protocol have been described in Leung et al., 2011. The RD index is defined as follows: […]
Δφ is the change in fluorescence after 6 hr of starting the reaction measured using 485 nm excitation and 535 nm emission, which primarily detects the signal from casein-FITC. E. coli CIpAP was used as a benchmark for maximum CIpP proteolytic activity. The CIpP in the numerator can be from any other organism. RD25 measurements refer to the measurement in the presence of 25 μM compound. All ADEP analogs were first screened at 25 μM, and their RD25 scores were calculated using the above formula and method as described in Leung et al., 2011 (FIG. 1A). Those that achieved RD25≥0.87 were screened a second time at 5 μM, followed by calculation of their RD5 scores. The top analogs with RD5≥0.74 were screened a third time at 1 μM, followed by calculation of their RD1 scores (FIG. 1B).
To identify ADEP analogs that allow HsCIpP to degrade folded proteins independent of HsCIpX+ATP (i.e., that activate or dysregulate HsCIpP), the inventors employed the in vitro screening method that was used for identifying small molecule activators of Escherichia coli CIpP (EcCIpP) (Leung et al., 2011). In this approach, the ability of HsCIpP to degrade FITC-labeled casein (casein-FITC) was measured and compared to the ability of EcCIpAP to degrade casein-FITC. This is quantitatively expressed as relative degradation (RD) index (Leung et al., 2011).

T2 sequence (Q16740 57-277): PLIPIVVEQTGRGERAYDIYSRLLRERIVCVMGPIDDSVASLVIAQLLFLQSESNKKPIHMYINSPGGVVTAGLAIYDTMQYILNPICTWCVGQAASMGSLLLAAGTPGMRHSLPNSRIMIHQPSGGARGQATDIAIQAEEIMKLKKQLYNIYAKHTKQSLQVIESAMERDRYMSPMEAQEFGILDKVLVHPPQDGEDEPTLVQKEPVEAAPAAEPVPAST
T1 sequence (Q16740 57-277 P57S): as the sequence (Q16740 57-277) above, with P1S counted along it

CCCC/C=C/C(=O)N[C@@H](Cc1cc(F)cc(F)c1)C(=O)N[C@@H]1C(=O)N2CCC[C@H]2C(=O)N2CCCC[C@H]2C(=O)N[C@@H](C)C(=O)N2CCC[C@H]2C(=O)O[C@H]1C [ADEP-41] ({Heptenoyl(2E)}-[Phe(3,5-F2)][aThr]P[Pip]AP; ester 2-C)
Kd (HsCIpP): 120 nM | Hs RD1 ([1]; RD value at 1 μM of the ADEP analog): 0.79 | Hs RD5 ([1]; RD value at 5 μM of the ADEP analog): 0.93 | Hs RD25 ([1]; RD value at 25 μM of the ADEP analog, measure of ability to activate HsCIpP): 0.96
